Values of other authors, collected in US12473247B2, “Encoded design integrated synthesis of nucleic acids, and phospholipids, and related pharmaceutical products” (priority 2023, dated 2025).

Tests used:
[1] = ratio relative to cortisol = 1; pharmacological potency of corticosteroids

Compound | solubility in aqueous | relative activity of dexamethasone:prednisolone:cortisol [1]
c1ccc2c(c1)ccc1c3ccccc3ccc21 [chrysene] | insoluble | –
C[C@]12CCC(=O)C=C1CC[C@@H]1[C@@H]2[C@@H](O)C[C@@]2(C)[C@H]1CC[C@]2(O)C(=O)CO [cortisol] | – | ~1
C[C@]12C=CC(=O)C=C1CC[C@@H]1[C@@H]2[C@@H](O)C[C@@]2(C)[C@H]1CC[C@]2(O)C(=O)CO [prednisolone] | – | ~4
